molecular target: binding between NRF2 and KEAP1 (Homo sapiens (Human), UniProt Q14145); assay: Binding assay: inhibition of binding between NRF2 and KEAP1 by BRET (NanoLuc-NRF2 and KEAP1-HaloTag cell lysates); settings: Test Example 1-1; NRF2-KEAP1 BRET; N=2
Description: The inhibitory activity of each compound on the binding between NRF2 and KEAP1 was measured by bioluminescence resonance energy transfer (BRET) assay. A plasmid having human NRF2 (Original Clone ID: ha01449s1) sequence fused with NanoLuc (19 kDa, Promega) at the N-terminal was transduced into HCE-T cells (immortalized human corneal epithelial cells) using FuGENE HD (Promega). 48 hours after transduction, the cell lysate was collected and used as an NRF2-expressing cell lysate. A plasmid having human KEAP1 (Original Clone ID: cs00328) sequence fused with HaloTag (33 kDa, Promega) at the C-terminal was transduced into HCE-T cells using FuGENE HD (Promega). After 24 hours, HaloTag Nano BRET 618 Ligand (Promega) was added to the medium. The cell lysate cultured for 24 hours after the addition was used as a KEAP1-expressing cell lysate.
The NRF2-expressing cell lysate and the KEAP1-expressing cell lysate were adjusted so that the luminescence and fluorescence intensities per well were constant. Tables 1 and 2 show the formulation of each reaction solution.
Each test substance at a concentration 100 times higher than the test concentration was dissolved in dimethylsulfoxide for adjustment. 49 μL of KEAP1 solution was added to a 96-well polystyrene microplate (FALCON) to which 1 μL of each test substance solution was added, followed by incubation for 15 minutes. Then, 50 μL of NRF2 solution was added to the above solution, followed by incubation for 1 hour. To measure the binding between NRF2 and KEAP1, NanoBRET Nano-Glo Substrate (Promega) diluted with Opti-Mem (Thermo Fisher Scientific) was added, followed by shaking for 30 seconds. Then, luminescence and fluorescence were measured using the GloMax Discover System (Promega). A 495-nm short pass filter and a 600-nm long pass filter were respectively used to measure donor and acceptor emission values. A value obtained by dividing the acceptor emission value by the donor emission value was regarded as BRET value. A BRET value when the compound was not added, and a BRET value when the KEAP1 solution was not added were respectively used as binding rates of 100% and 0%, and the binding rate when the compound was added was calculated. Further, using this binding rate, the 50% binding inhibitory activity concentration (IC50) was calculated from the following formula. The test was performed at N=2.
IC50(M)=10^(LOG(A/B)×(50−C)/(D−C)+LOG(B)) • A: higher concentration out of 2 close concentrations across the inhibition rate of 50% • B: lower concentration out of 2 close concentrations across the inhibition rate of 50% • C: inhibition rate at B • D: inhibition rate at A
Compounds A1/A2, compounds B1/B2, compounds C1/C2, and compounds D1/D2 were used as test substances. Binding assay and reporter assay were performed as in Test Example 1-1 and Test Example 1-2.

Sequence of binding between NRF2 and KEAP1 (Q14145 whole entry, the tested form may be a part): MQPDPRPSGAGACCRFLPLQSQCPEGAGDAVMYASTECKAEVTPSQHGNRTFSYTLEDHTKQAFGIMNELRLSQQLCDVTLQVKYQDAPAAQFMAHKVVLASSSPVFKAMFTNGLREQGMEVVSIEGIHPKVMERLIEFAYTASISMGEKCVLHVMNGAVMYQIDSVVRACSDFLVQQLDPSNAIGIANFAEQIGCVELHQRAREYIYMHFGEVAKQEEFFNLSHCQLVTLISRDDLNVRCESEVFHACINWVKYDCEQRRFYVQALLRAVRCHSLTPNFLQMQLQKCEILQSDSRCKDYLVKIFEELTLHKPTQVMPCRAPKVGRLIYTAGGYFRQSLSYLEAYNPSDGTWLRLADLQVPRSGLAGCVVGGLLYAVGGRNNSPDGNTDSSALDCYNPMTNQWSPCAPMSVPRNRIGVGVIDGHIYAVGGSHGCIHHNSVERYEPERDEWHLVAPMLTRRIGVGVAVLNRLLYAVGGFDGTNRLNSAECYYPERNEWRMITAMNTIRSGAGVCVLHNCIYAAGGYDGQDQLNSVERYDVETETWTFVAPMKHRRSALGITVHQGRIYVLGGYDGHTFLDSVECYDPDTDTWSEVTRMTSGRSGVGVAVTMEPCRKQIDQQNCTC

Compound | IC50 [nM]
CC[C@@H]1CN(Cc2cc(C(CC(=O)O)c3ccc(C(C)=O)s3)ccc2C)S(=O)(=O)c2cnccc2O1 (stereo partly drawn) [Compound 53, 3-(5-acetylthiophen-2-yl)-3-(3-{[(R)-4-ethyl-1,1-dioxide-3,4-dihydro-2H-pyrido[4,3-b][1,4,5]oxathiazepin-2-yl]methyl}-4-methylphenyl)propanoic acid] | 2.3
CC[C@@H]1CN(Cc2cc(C(CC(=O)O)c3csc(C(C)=O)c3)ccc2C)S(=O)(=O)c2ccccc2O1 (stereo partly drawn) [Compound 15, 3-(5-acetylthiophen-3-yl)-3-(3-{[(R)-4-ethyl-1,1-dioxide-3,4-dihydro-2H-benzo[b][1,4,5]oxathiazepin-2-yl]methyl}-4-methylphenyl)propanoic acid] | 1.4
CC[C@@H]1CN(Cc2cc(C(c3cc(C(C)=O)cs3)C(C)C(=O)O)ccc2C)S(=O)(=O)c2ccccc2O1 (stereo partly drawn) [Compound 3, 3-(4-acetylthiophen-2-yl)-3-(3-{[(R)-4-ethyl-1,1-dioxide-3,4-dihydro-2H-benzo[b][1,4,5]oxathiazepin-2-yl]methyl}-4-methylphenyl)-2-methylpropanoic acid] | 0.17
CC[C@@H]1CN(Cc2cc(C(c3cc(OC)c(C(C)=O)s3)C(C)(C)C(=O)O)ccc2C)S(=O)(=O)c2cnccc2O1 (stereo partly drawn) [Compound 50, 3-(5-acetyl-4-methoxythiophen-2-yl)-3-(3-{[(R)-4-ethyl-1,1-dioxide-3,4-dihydro-2H-pyrido[4,3-b][1,4,5]oxathiazepin-2-yl]methyl}-4-methylphenyl)-2,2-dimethylpropanoic acid] | 0.19
CC[C@@H]1CN(Cc2cc(C(c3ccc(C(C)=O)s3)C(C)(C)C(=O)O)ccc2C)S(=O)(=O)c2c(F)cccc2O1 (stereo partly drawn) [Compound 9, 3-(5-acetylthiophen-2-yl)-3-(3-{[(R)-4-ethyl-9-fluoro-1,1-dioxide-3,4-dihydro-2H-benzo[b][1,4,5]oxathiazepin-2-yl]methyl}-4-methylphenyl)-2,2-dimethylpropanoic acid] | 0.3
CC[C@@H]1CN(Cc2cc(C(c3cc(F)c(C(C)=O)s3)C(C)C(=O)O)ccc2C)S(=O)(=O)c2cnccc2O1 (stereo partly drawn) [Compound 52, 3-(5-acetyl-4-fluorothiophen-2-yl)-3-(3-{[(R)-4-ethyl-1,1-dioxide-3,4-dihydro-2H-pyrido[4,3-b][1,4,5]oxathiazepin-2-yl]methyl}-4-methylphenyl)-2-methylpropanoic acid] | 0.27
CC[C@@H]1CN(Cc2cc(C(CC(=O)O)c3sc(C(C)=O)cc3C)ccc2C)S(=O)(=O)c2ccccc2O1 (stereo partly drawn) [Compound 14, 3-(5-acetyl-3-methylthiophen-2-yl)-3-(3-{[(R)-4-ethyl-1,1-dioxide-3,4-dihydro-2H-benzo[b][1,4,5]oxathiazepin-2-yl]methyl}-4-methylphenyl)propanoic acid] | 1.3
3-[5-(cyclopropanecarbonyl)thiophen-2-yl]-3-(3-{[(R)-4-ethyl-1,1-dioxide-3,4-dihydro-2H-benzo[b][1,4,5]oxathiazepin-2-yl]methyl}-4-methylphenyl)propanoic acid [Compound 20] | 24
CC[C@@H]1CN(Cc2cc(C(c3ccc(C(C)=O)s3)C(C)C(=O)O)ccc2C)S(=O)(=O)c2ccccc2O1 (stereo partly drawn) [Compound 1, 3-(5-acetylthiophen-2-yl)-3-(3-{[(R)-4-ethyl-1,1-dioxide-3,4-dihydro-2H-benzo[b][1,4,5]oxathiazepin-2-yl]methyl}-4-methylphenyl)-2-methylpropanoic acid] | 0.24
CC[C@@H]1CN(Cc2cc(C(CC(=O)O)c3cc(F)c(C(C)=O)s3)ccc2C)S(=O)(=O)c2ccccc2O1 (stereo partly drawn) [Compound 8, 3-(5-acetyl-4-fluorothiophen-2-yl)-3-(3-{[(R)-4-ethyl-1,1-dioxide-3,4-dihydro-2H-benzo[b][1,4,5]oxathiazepin-2-yl]methyl}-4-methylphenyl)propanoic acid] | 0.36
CC[C@@H]1CN(Cc2cc(C(CC(=O)O)c3ccc(C(=O)NC)s3)ccc2C)S(=O)(=O)c2ccccc2O1 (stereo partly drawn) [Compound 21, 3-(3-{[(R)-4-ethyl-1,1-dioxide-3,4-dihydro-2H-benzo[b][1,4,5]oxathiazepin-2-yl]methyl}-4-methylphenyl)-3-[5-(methylcarbamoyl)thiophen-2-yl]propanoic acid] | 4.6
CC[C@@H]1CN(Cc2cc(C(c3cc(F)c(C(C)=O)s3)C(C)(C)C(=O)O)ccc2C)S(=O)(=O)c2cnccc2O1 (stereo partly drawn) [Compound 49, 3-(5-acetyl-4-fluorothiophen-2-yl)-3-(3-{[(R)-4-ethyl-1,1-dioxide-3,4-dihydro-2H-pyrido[4,3-b][1,4,5]oxathiazepin-2-yl]methyl}-4-methylphenyl)-2,2-dimethylpropanoic acid] | 0.31
CC[C@@H]1CN(Cc2cc(C(CC(=O)O)c3cc(C(C)=O)cs3)ccc2C)S(=O)(=O)c2ccccc2O1 (stereo partly drawn) [Compound 10, 3-(4-acetylthiophen-2-yl)-3-(3-{[(R)-4-ethyl-1,1-dioxide-3,4-dihydro-2H-benzo[b][1,4,5]oxathiazepin-2-yl]methyl}-4-methylphenyl)propanoic acid] | 0.3
CC(=O)c1ccc(C(c2ccc(C)c(CN3CC(CCOCc4ccccc4)Oc4ccccc4S3(=O)=O)c2)C(C)C(=O)O)s1 (stereo not shown) [Compound 13, 3-(5-acetylthiophen-2-yl)-3-[3-({4-[2-(benzyloxy)ethyl]-1,1-dioxide-3,4-dihydro-2H-benzo[b][1,4,5]oxathiazepin-2-yl}methyl)-4-methylphenyl]-2-methylpropanoic acid] | 0.5
CC[C@@H]1CN(Cc2cc(C(c3ccc(C(C)=O)s3)C(C)C(=O)O)ccc2C)S(=O)(=O)c2cnccc2O1 (stereo partly drawn) [Compound 16, 3-(5-acetylthiophen-2-yl)-3-(3-{[(R)-4-ethyl-1,1-dioxide-3,4-dihydro-2H-pyrido[4,3-b][1,4,5]oxathiazepin-2-yl]methyl}-4-methylphenyl)-2-methylpropanoic acid] | 0.2
CC[C@@H]1CN(Cc2cc(C(CC(=O)O)c3ccc(C(C)=O)s3)ccc2C)S(=O)(=O)c2ccccc2O1 (stereo partly drawn) [Compound 5, 3-(5-acetylthiophen-2-yl)-3-(3-{[(R)-4-ethyl-1,1-dioxide-3,4-dihydro-2H-benzo[b][1,4,5]oxathiazepin-2-yl]methyl}-4-methylphenyl)propanoic acid] | 0.23
CC[C@@H]1CN(Cc2cc(C(c3ccc(C(C)=O)s3)C(C)(C)C(=O)O)ccc2C)S(=O)(=O)c2cnccc2O1 (stereo partly drawn) [Compound 48, 3-(5-acetylthiophen-2-yl)-3-(3-{[(R)-4-ethyl-1,1-dioxide-3,4-dihydro-2H-pyrido[4,3-b][1,4,5]oxathiazepin-2-yl]methyl}-4-methylphenyl)-2,2-dimethylpropanoic acid] | 0.39
CC[C@@H]1CN(Cc2cc(C(c3cc(OC)c(C(C)=O)s3)C(C)(C)C(=O)O)ccc2C)S(=O)(=O)c2ccccc2O1 (stereo partly drawn) [Compound 4, 3-(5-acetyl-4-methoxythiophen-2-yl)-3-(3-{[(R)-4-ethyl-1,1-dioxide-3,4-dihydro-2H-benzo[b][1,4,5]oxathiazepin-2-yl]methyl}-4-methylphenyl)-2,2-dimethylpropanoic acid] | 0.41
CC[C@@H]1CN(Cc2cc(C(c3cc(OC)c(C(C)=O)s3)C(C)C(=O)O)ccc2C)S(=O)(=O)c2cnccc2O1 (stereo partly drawn) [Compound 51, 3-(5-acetyl-4-methoxythiophen-2-yl)-3-(3-{[(R)-4-ethyl-1,1-dioxide-3,4-dihydro-2H-pyrido[4,3-b][1,4,5]oxathiazepin-2-yl]methyl}-4-methylphenyl)-2-methylpropanoic acid] | 0.41

— patent publication US20240132519A1, “NRF2-ACTIVATING COMPOUND” (SENJU PHARMACEUTICAL CO., LTD., priority 2020, published 2024)
